Test results reported in patent US20220257500A1, “USE OF A HYDRO-ALCOHOLIC EXTRACT OF EVENING PRIMROSE FOR HYDRATING SKIN AND INCREASING BARRIER FUNCTION” (L'OREAL, priority 2019, published 2022).

Columns and labels:
Assay type in all cases: cell-based
Details in all cases: normal human epidermal keratinocytes, 24 h, normalised to GAPDH
[1] = tested on: LCE3D (late cornified envelope 3D); experiment: RT-qPCR analysis of gene expression, LCE3D transcript
Description: (§1) Normal, human epidermal keratinocytes were used to conduct the study. Normal, human epidermal keratinocytes were seeded in 48-well culture plates and cultured in culture medium for 3 days at 37° C. under 5% CO2 with renewal of the culture medium after the first 24 hours of culture. After incubation, the culture medium was replaced by test medium (supplemented with 1.5 mM CaCl2) containing or not containing (control) the compounds to be tested, and the cells were incubated for 24 hours. All conditions were performed with n=2. After treatment, the culture media were removed and the cells rinsed twice with PBS (w/o CaCl2, w/o MgCl2). Total RNAs were isolated using a magnetic bead extraction kit, following the manufacturer's instructions (MagMAX™-96 Total RNA Isolation Kit, Ambion). Quantification of RNAs and quality control thereof were analysed using Labchip GX (Perkin Elmer). Expression of the selected transcripts was analysed by two-step quantitative PCR. First, the cDNAs were retro-transcribed from the RNAs using the Quantitect® Reverse transcription kit (QIAGEN) following the manufacturer's instructions. The quantitative PCR experiments were performed using a LightCycler® 480 Real-Time PCR System in 384-well plate (Roche) following the incorporation technique of SYBR®Green (Roche) (Table 4). The results are expressed as fold change (Fc) as compared with the non-treated control, after normalising relative expressions in relation to expression of a housekeeping gene (GAPDH). The expression of a gene is considered to be stimulated when it is multiplied at least by 1.5.

FLG2 (filaggrin 2) = experiment: RT-qPCR analysis of gene expression, FLG2 transcript
Description: as §1

[2] = tested on: SPRR1A (small proline-rich protein 1A); experiment: RT-qPCR analysis of gene expression, SPRR1A transcript
Description: as §1

CNFN (cornifelin) = experiment: RT-qPCR analysis of gene expression, CNFN transcript
Description: as §1

Compound	LCE3D Fold change vs Control (Fc) ([1]; 0.004 mg/mL)	FLG2 Fold change vs Control (Fc) (FLG2 (filaggrin 2); 0.004 mg/mL)	SPRR1A Fold change vs Control (Fc) ([2]; 0.004 mg/mL)	CNFN Fold change vs Control (Fc) (CNFN (cornifelin); 0.004 mg/mL)	LCE3D Fold change vs Control (Fc) ([1]; 0.1 mg/mL)	FLG2 Fold change vs Control (Fc) (FLG2 (filaggrin 2); 0.1 mg/mL)	SPRR1A Fold change vs Control (Fc) ([2]; 0.1 mg/mL)	CNFN Fold change vs Control (Fc) (CNFN (cornifelin); 0.1 mg/mL)
O=c1oc2c(O)c(O)cc3c(=O)oc4c(O)c(O)cc1c4c23 [Ellagic acid, ellagic acid]	0.51 fold change	1.22 fold change	0.96 fold change	0.64 fold change				
O=c1c(O[C@@H]2O[C@H](CO)[C@H](O)[C@H](O)[C@H]2O)c(-c2ccc(O)c(O)c2)oc2cc(O)cc(O)c12 [Hyperoside, hyperoside]					0.61 fold change	0.5 fold change	0.64 fold change	0.61 fold change
O=c1c(O[C@@H]2O[C@H](CO)[C@@H](O)[C@H](O)[C@H]2O)c(-c2ccc(O)c(O)c2)oc2cc(O)cc(O)c12 [Isoquercitrin, isoquercitrin]					0.47 fold change	0.9 fold change	0.57 fold change	0.54 fold change
O=C(O)[C@H]1O[C@@H](Oc2cc(O)c3c(=O)cc(-c4ccc(O)c(O)c4)oc3c2)[C@H](O)[C@@H](O)[C@@H]1O [Luteoline-7-O-glucuronide, luteoline-7-O-glucuronide]					0.44 fold change	0.4 fold change	0.41 fold change	0.42 fold change
O=c1c(O)c(-c2ccc(O)c(O)c2)oc2cc(O)cc(O)c12 [Quercetin, quercetin]					0.2 fold change	0.12 fold change	0.13 fold change	0.13 fold change
oenothein B	0.87 fold change	1.36 fold change	1.07 fold change	0.76 fold change				
